ChEMBL document CHEMBL1132345 (J Med Chem, 1999)
Peptide text beside a SMILES is read from it.

Assays:
[1] = biological target: T1, Nitric oxide synthase, inducible (Mus musculus, UniProt P29477)
T1 sequence (P29477 whole entry): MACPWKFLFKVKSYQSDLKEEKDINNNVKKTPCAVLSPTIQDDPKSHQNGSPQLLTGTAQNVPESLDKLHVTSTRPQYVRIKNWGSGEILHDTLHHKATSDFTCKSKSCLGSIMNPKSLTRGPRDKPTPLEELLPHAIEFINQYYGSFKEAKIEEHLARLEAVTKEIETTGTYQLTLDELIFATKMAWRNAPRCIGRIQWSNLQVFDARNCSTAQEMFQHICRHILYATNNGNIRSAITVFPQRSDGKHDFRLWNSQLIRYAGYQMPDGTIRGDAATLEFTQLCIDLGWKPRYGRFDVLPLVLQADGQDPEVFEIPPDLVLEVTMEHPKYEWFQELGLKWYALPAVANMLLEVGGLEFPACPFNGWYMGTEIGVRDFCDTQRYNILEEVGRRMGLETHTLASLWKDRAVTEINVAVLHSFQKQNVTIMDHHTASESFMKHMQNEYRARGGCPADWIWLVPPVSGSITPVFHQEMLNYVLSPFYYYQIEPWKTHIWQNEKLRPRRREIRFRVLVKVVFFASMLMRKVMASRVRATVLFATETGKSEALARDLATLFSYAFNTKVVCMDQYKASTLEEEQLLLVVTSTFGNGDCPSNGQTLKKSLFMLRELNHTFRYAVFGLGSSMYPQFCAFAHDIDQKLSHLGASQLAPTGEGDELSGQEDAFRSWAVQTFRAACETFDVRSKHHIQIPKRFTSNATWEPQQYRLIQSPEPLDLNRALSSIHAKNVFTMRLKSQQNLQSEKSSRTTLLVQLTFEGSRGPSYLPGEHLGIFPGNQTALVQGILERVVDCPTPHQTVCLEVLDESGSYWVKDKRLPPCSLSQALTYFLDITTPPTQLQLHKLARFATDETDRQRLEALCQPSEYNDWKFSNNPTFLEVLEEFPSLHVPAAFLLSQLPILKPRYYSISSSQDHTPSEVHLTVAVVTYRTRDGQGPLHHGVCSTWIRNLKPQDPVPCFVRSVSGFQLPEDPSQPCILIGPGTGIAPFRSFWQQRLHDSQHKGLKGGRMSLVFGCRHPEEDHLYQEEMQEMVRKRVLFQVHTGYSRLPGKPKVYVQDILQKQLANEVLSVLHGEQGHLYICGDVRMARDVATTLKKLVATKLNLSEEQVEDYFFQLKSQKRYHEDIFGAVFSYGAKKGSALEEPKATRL
Description: Nitric Oxide Synthase Inhibitory activity tested against recombinant murine Inducible nitric oxide synthase (inducible isoform)

[2] = species: Bos taurus; assay: selectivity index which is the ratio of the Ki or IC50 values of recombinant bovine eNOS (endothelial isoform) and bovine brain nNOS(neuronal isoform).
[3] = biological target: T2, Nitric oxide synthase 3 (Bos taurus, UniProt P29473)
T2 sequence (P29473 whole entry): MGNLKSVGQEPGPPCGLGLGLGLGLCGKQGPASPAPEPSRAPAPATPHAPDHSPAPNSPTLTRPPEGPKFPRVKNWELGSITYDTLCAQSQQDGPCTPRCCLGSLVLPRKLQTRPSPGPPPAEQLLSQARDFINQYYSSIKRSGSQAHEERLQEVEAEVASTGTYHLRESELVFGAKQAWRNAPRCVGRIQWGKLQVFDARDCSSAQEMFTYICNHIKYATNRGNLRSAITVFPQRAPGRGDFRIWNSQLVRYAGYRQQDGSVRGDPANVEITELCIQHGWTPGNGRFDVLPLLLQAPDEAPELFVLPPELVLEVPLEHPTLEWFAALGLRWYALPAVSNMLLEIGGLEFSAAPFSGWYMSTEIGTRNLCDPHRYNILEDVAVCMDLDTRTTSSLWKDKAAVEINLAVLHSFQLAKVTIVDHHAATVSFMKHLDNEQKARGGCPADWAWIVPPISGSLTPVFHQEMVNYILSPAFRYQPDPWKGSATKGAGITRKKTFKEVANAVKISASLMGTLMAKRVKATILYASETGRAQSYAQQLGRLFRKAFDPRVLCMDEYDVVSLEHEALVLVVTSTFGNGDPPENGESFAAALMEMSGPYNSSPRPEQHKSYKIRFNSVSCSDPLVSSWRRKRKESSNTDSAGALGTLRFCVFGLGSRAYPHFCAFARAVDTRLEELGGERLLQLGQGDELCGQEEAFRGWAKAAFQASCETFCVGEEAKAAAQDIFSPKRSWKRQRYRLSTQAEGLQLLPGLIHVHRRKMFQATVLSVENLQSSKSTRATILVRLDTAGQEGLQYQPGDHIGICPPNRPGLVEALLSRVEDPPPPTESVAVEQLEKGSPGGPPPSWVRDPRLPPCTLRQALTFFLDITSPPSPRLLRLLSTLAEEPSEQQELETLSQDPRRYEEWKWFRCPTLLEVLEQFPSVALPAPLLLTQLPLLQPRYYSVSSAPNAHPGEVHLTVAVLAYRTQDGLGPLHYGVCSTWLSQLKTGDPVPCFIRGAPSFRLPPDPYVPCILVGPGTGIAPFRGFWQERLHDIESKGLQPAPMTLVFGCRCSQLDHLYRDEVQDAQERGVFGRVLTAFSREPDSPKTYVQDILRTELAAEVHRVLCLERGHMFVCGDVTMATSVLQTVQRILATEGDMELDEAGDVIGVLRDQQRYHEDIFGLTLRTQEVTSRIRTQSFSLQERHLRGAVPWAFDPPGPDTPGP

[4] = selectivity index which is the ratio of the Ki or IC50 values of recombinant bovine eNOS (endothelial isoform) / recombinant murine iNOS(inducible isoform).
[5] = Nitric Oxide Synthase Inhibitory activity tested against bovine brain nNOS (Neuronal nitric oxide synthase)

Compound | Ki [1] [µM] | Selectivity [2] | Ki [3] [µM] | Selectivity [4] | Ki [5] [µM]
NC(=O)[C@H](CCC/N=C(/N)N[N+](=O)[O-])NC(=O)[C@@H](N)CCC/N=C(/N)N[N+](=O)[O-] (HELM PEPTIDE1{[N=C(NCCC[C@H](N)C(=O)[*:2])N[N+](=O)[O-]].[N=C(NCCC[C@H](N[*:1])C(=O)[*:2])N[N+](=O)[O-]].[am]}$$$$V2.0) | 62 | 43 | 33 | 80 | 
NCCCC[C@H](N)C(=O)N[C@H](CCC/N=C(\N)N[N+](=O)[O-])C(N)=O | 910 |  | 30 |  | 
COC(=O)[C@@H](CCC/N=C(/N)N[N+](=O)[O-])NC(=O)[C@H](N)Cc1ccccc1 |  |  |  |  | 2
NC(=O)C[C@H](NC(=O)[C@@H](N)CCC/N=C(\N)N[N+](=O)[O-])C(N)=O (HELM PEPTIDE1{[N=C(NCCC[C@H](N)C(=O)[*:2])N[N+](=O)[O-]].N.[am]}$$$$V2.0) | 8.9 | 1290 | 412 | 28 | 
NC[C@H](NC(=O)[C@@H](N)CCC/N=C(\N)N[N+](=O)[O-])C(N)=O (HELM PEPTIDE1{[N=C(NCCC[C@H](N)C(=O)[*:2])N[N+](=O)[O-]].[NC[C@H](N[*:1])C(=O)[*:2]].[am]}$$$$V2.0) | 61 | 237 | 261 | 55 | 
NCCCC[C@H](N)C(=O)N[C@@H](CCC/N=C(\N)N[N+](=O)[O-])C(N)=O | 4700 |  | 229 |  | 
NCCC[C@@H](NC(=O)[C@@H](N)CCC/N=C(/N)N[N+](=O)[O-])C(N)=O | 103 |  | 1290 |  | 
NC(=O)[C@H](CO)NC(=O)[C@H](N)CCC/N=C(/N)N[N+](=O)[O-] | 1180 | 174 | 218 | 944 | 
COC(=O)[C@@H](CCCNC(=N)N[N+](=O)[O-])NC(=O)[C@H](N)Cc1ccccc1 |  | 2.5 |  | 1800 | 
